Measurements taken from patent publication US9388216B2, “Methods of treating reproductive cancer” (Medical Research Council, priority 2006, dated 2016).

Legend:
[1] = system: Gi coupling of GnRHR (FSK-stimulated cAMP); assay: Inhibition of FSK-stimulated cAMP in HEK293/rGnRHR cells; assay type: cell-based, rat; conditions: unpublished results
Excerpt: However, we agree with the general view that PLC, representing the classical Gq-initiated pituitary signalling pathway, is not a relevant component of the apoptotic cascade.

[2] = system: PARP cleavage in HEK293/rGnRHR cells; assay: Time-course of PARP cleavage (apoptosis), western blot; assay type: cell-based, rat; conditions: 100 nM
Method: (§1) We investigated whether the growth suppression caused by GnRH on HEK293 cells expressing the rat receptor was due to an inhibition of cell proliferation or an induction of apoptosis. On the one hand, we used radioactive thymidine incorporation into the genome to track cell proliferation over a period of 96 h. […] On the other hand, we measured apoptosis by monitoring cleavage of poly[ADP-ribose]polymerase (PARP), a substrate of caspase 3. […] The increase of cleaved PARP in the cytoplasm was proportional to the increase of cleaved PARP in the nucleus (data not shown), so we routinely only examined clarified whole-cell lysates for technical ease.

HEK293/rGnRHR cells [3] = assay: Cell growth inhibition (viable cell number after 5 days of continuous treatment) in HEK293/rGnRHR cells; assay type: cell-based, rat; conditions: rat receptor
Method: (§2) For the first method, HEK293 cells expressing various GnRH receptor constructs were seeded into 12-well PLL-coated plates at 50,000 cells (in 1 ml)/well and cultured with continuous GnRH exposure for five days, adding fresh peptide every day. Trypan Blue-excluding cells were then counted with a haemocytometer. For the second method, cells were seeded into 96-well plates at 5,000 cells (in 100 μl)/well and treated exactly as described before. 10 μl WST-1 reagent (Roche Diagnostics Ltd.; Lewes, East Sussex, UK) was added directly to each well and, after 3 h at 37° C., absorbance was read at 450 nm (with a reference at 690 nm) against a background control as blank using a microplate ELISA reader.
(§3) Bar graphs and curves were obtained using Prism 3.0 (GraphPad Software, Inc.: San Diego, Calif., USA). IC50 and EC50 values were determined by non-linear regression analysis. Curves were best-fitted to a one-site model. […] Values were normalised as specified in the figure legends.
(§4) Antiproliferation/apoptosis was estimated by determining cell number after five days of continuous exposure to the peptides. In parallel, this response was compared to the classical Gq coupled-PLCβ activation induced by GnRH peptides, as measured by the very well characterized inositol phosphates accumulation protocol. Both outputs were determined in two HEK293 cell lines; one expressing the rat receptor and the other expressing the human receptor. The human cell line was included in the study because this species may be clinically more relevant and the very low receptor expression may better reflect the in vivo tumoural state. In fact, due to poor binding, the precise affinity of the analogues on this cell line could not be determined.

HEK293/rGnRHR cells [4] = assay: Thymidine incorporation assay; assay type: cell-based, rat; conditions: 100 nM, continuous treatment, over 96 h
Method: Medium of cells growing on 24-well PLL-coated plates was removed and 0.5 μCi [3H]thymidine (Amersham) in complete fresh medium was added to each well. After an overnight incubation, the medium was removed, the cells washed three times with 1 ml PBS and left for […] at room temperature in 0.5 ml 0.1 N NaOH. The extract was then transferred to a scintillation vial, 2 ml of Optiphase “HiSafe 3” cocktail (PerkinElmer) added and 3H counts measured in a liquid scintillation 1450 Wallac MicroBeta® TriLux counter.
as §1

HEK293/hGnRHR cells = assay: Cell growth inhibition (viable cell number after 5 days of continuous treatment) in HEK293/hGnRHR cells; assay type: cell-based, human; conditions: human receptor
Method: as §2, §3, §4

[5] = system: ERK1/2 phosphorylation in HEK293 cells expressing rat GnRHR or rat GnRHR/TRHR chimera; assay: ERK activation profile, western blot with anti-phosphorylated ERK1/2; assay type: cell-based; conditions: 100 nM, rat GnRHR versus rat GnRHR/TRHR chimera
Excerpt: We decided to investigate if this lack of rapid desensitisation holds true for other responses that may be more pertinent for the antiproliferative/apoptotic properties of GnRH.

rat GnRH receptor = biological target: T1, rat GnRH receptor (Rattus norvegicus, UniProt P30969); assay: Accumulation of total inositol phosphates (PLCβ activation) in HEK293/rGnRHR cells; assay type: cell-based
T1 construct: expressed in transfected cells
T1 sequence (P30969 1-327): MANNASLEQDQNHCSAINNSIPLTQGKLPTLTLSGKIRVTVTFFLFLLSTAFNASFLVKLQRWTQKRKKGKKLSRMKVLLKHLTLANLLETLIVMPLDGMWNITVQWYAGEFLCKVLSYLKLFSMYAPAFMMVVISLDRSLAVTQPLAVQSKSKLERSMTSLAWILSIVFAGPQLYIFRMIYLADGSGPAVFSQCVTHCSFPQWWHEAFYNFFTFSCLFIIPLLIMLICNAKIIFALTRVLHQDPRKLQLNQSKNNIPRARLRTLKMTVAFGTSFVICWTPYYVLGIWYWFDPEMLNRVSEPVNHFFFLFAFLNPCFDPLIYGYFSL
Method: HEK293 cells stably expressing the GnRH receptor growing on 12-well PLL-coated plates were pre-labelled with 1 μCi/ml myo-[H3]inositol (Amersham) in inositol-free DMEM (Sigma) for 48 h. On the day of the experiment, cells were washed with assay buffer (140 mM NaCl, 20 mM HEPES, 8 mM glucose, 4 mM KCl, 1 mM MgCl2, 1 mM CaCl2, 1 mg/ml BSA), pre-incubated with 10 mM LiCl (in assay buffer) for 30 min, and stimulated with different concentrations of the peptides (in the same buffer) for 1 h at 37° C. Incubations were terminated by removing the culture medium and lysing the cells in ice cold 10 mM formic acid for 30 min. Inositol phosphates were extracted by chromatography with an anion exchange resin (AG® 1-X8, Bio-Rad) using 1 M ammonium formate and 0.1 M formic acid. Liquid scintillant was added to the final eluate and [3H]inositol phosphates were measured in the β-counter.
as §3

[6] = system: HEK293 cells expressing human GnRHR with catfish GnRHR tail or rat GnRHR with TRHR tail; assay: Cell growth after five days of GnRH I in HEK293 cells expressing tailed chimeric receptors; assay type: cell-based; conditions: five days of continuous treatment
Method: Trypan Blue-excluding cells were then counted with a haemocytometer. For the second method, cells were seeded into 96-well plates at 5,000 cells (in 100 μl)/well and treated exactly as described before. 10 μl WST-1 reagent (Roche Diagnostics Ltd.; Lewes, East Sussex, UK) was added directly to each well and, after 3 h at 37° C., absorbance was read at 450 nm (with a reference at 690 nm) against a background control as blank using a microplate ELISA reader. To the best of our knowledge, the ability to inhibit the growth of cells expressing its cognate receptor is a property only clearly described for GnRH, Since the type I GnRH receptor (GnRHR) is the only G protein-coupled receptor lacking an intracellular C-terminal tail, we hypothesized that the cell growth suppression ability of GnRH was conferred by this unique feature of the GnRHR. […] We were unable to detect growth suppression of wild-type HEK293 cells, which endogenously express adrenergic, LPA and endothelin receptors, treated with their corresponding agonists (data not shown). The expression of all receptors mentioned was confirmed by binding assays or western blotting (data not shown).

[7] = system: HEK293 cells over-expressing the catfish GnRHR or the TRHR; assay: Cell growth in HEK293 cells over-expressing the catfish GnRHR or the TRHR; assay type: cell-based; conditions: data not shown
Method: as §2
To the best of our knowledge, the ability to inhibit the growth of cells expressing its cognate receptor is a property only clearly described for GnRH, Since the type I GnRH receptor (GnRHR) is the only G protein-coupled receptor lacking an intracellular C-terminal tail, we hypothesized that the cell growth suppression ability of GnRH was conferred by this unique feature of the GnRHR. […] We were unable to detect growth suppression of wild-type HEK293 cells, which endogenously express adrenergic, LPA and endothelin receptors, treated with their corresponding agonists (data not shown). The expression of all receptors mentioned was confirmed by binding assays or western blotting (data not shown).

Row | Substance | inhibition of FSK-stimulated cAMP [1] | time after first treatment at which PARP cleavage (apoptosis) is manifest [2] | fold more potent than GnRH I to induce cell death / inhibit cell growth (HEK293/rGnRHR cells [3]) [fold] | DNA replication (thymidine incorporation) compared to untreated cells (HEK293/rGnRHR cells [4]) | fold more potent than GnRH I to induce cell death / inhibit cell growth (HEK293/hGnRHR cells) [fold] | duration of ERK activation [5] | fold more potent to activate PLCβ than GnRH II (rat GnRH receptor) [fold] | effect of GnRH I on cell growth of cell lines expressing the chimeras [6] | inhibition of cell growth [7]
1 | pGlu-His-Trp-Ser-His-Gly-Trp-Tyr-Pro-Gly.NH2 (EHWSHGWYPG; HELM PEPTIDE1{[Glp].H.W.S.H.G.W.Y.P.G.[am]}$$$$V2.0; SMILES NC(=O)CNC(=O)[C@@H]1CCCN1C(=O)[C@H](Cc1ccc(O)cc1)NC(=O)[C@H](Cc1c[nH]c2ccccc12)NC(=O)CNC(=O)[C@H](Cc1c[nH]cn1)NC(=O)[C@H](CO)NC(=O)[C@H](Cc1c[nH]c2ccccc12)NC(=O)[C@H](Cc1c[nH]cn1)NC(=O)[C@@H]1CCC(=O)N1) [GnRH II, human gonadotropin-releasing hormone II, purchased from Sigma-Aldrich] | did not detect | 24 h | 13.0 | reduced DNA replication | 6.7 | – | – | – | –
2 | pGlu-His-Trp-Ser-Tyr-Gly-Leu-Arg-Pro-Gly.NH2 [GnRH I] | did not detect | at least 48 h | – | reduced DNA replication | – | more sustained in the cells expressing the receptors lacking the C-terminal tail | 4.7 | Addition of the C-terminal tails inhibited the effect | did not inhibit the growth
